Laboratory results from ChEMBL document CHEMBL1201862, “PubChem BioAssay data set” (2004).
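Where inhibition never reached the appropriate level, the endpoint shown equals the highest concentration tested. Otherwise, values were interpolated linearly from a five-concentration, 48-hour dose response in 96-well plates. GI50 marks 50% less growth.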 Calls of active or inactive are those of the source. Cut-off read from the data, not from the text of the source: active = GI50 up to about 1.1 µM and inactive = higher.

What was measured:
Assay in all cases: inhibition of tumour cell growth, NCI panel, 48 h
MOLT-4 = test system: MOLT-4
M14 = test system: M14
MDA-MB-231 = test system: MDA-MB-231
UO-31 = test system: UO-31
HCT-15 = test system: HCT-15
DU-145 = test system: DU-145
T47D = test system: T47D
NCI/ADR-RES = test system: NCI/ADR-RES
ACHN = test system: ACHN
SR = test system: SR
HCT-116 = test system: HCT-116
Malme-3M = test system: Malme-3M
U-251 = test system: U-251
SW-620 = test system: SW-620
A498 = test system: A498
SN12C = test system: SN12C
NCI-H460 = test system: NCI-H460
SK-MEL-28 = test system: SK-MEL-28
A549 = test system: A549
HOP-92 = test system: HOP-92

Row | SMILES | GI50 (MOLT-4) | GI50 (M14) | GI50 (MDA-MB-231) | GI50 (UO-31) | GI50 (HCT-15) [µM] | GI50 (DU-145) | GI50 (T47D) | GI50 (NCI/ADR-RES) | GI50 (ACHN) | GI50 (SR) | GI50 (HCT-116) | GI50 (Malme-3M) | GI50 (U-251) | GI50 (SW-620) | GI50 (A498) | GI50 (SN12C) | GI50 (NCI-H460) | GI50 (SK-MEL-28) | GI50 (A549) | GI50 (HOP-92)
1 | CNC(=O)C1OC(n2cnc3c(NCc4cccc(I)c4)nc(Cl)nc32)C(O)C1O (stereo not drawn) | 14.2 µM (inactive) | 10.3 µM (inactive) | 22.8 µM (inactive) | 11.9 µM (inactive) | 1.06 | 19.7 µM (inactive) | 15.6 µM (inactive) | 11.7 µM (inactive) | 11.8 µM (inactive) | 14 µM (inactive) | 15.6 µM (inactive) | 3.64 µM (inactive) | 14.8 µM (inactive) | 14.9 µM (inactive) | 13.8 µM (inactive) | 16.6 µM (inactive) |  |  |  | 
2 | O=C(N/N=C1\CCc2ccccc21)N/N=C1\CCc2ccccc21 | > 100 µM (inactive) | 13.5 µM (inactive) | 12.9 µM (inactive) | > 100 µM (inactive) | > 100 | > 100 µM (inactive) | > 100 µM (inactive) | > 100 µM (inactive) | > 100 µM (inactive) | 0.055 µM (active) | > 100 µM (inactive) | > 100 µM (inactive) | > 100 µM (inactive) | > 100 µM (inactive) | > 100 µM (inactive) | > 100 µM (inactive) | > 100 µM (inactive) | > 100 µM (inactive) | > 100 µM (inactive) | 
3 | COc1cc(/C=C/C(=O)CC(=O)/C=C/c2cc(OC)c(O)c(OC)c2)cc(OC)c1O | 6.84 µM (inactive) | 8.61 µM (inactive) | 13.8 µM (inactive) | > 25 µM (inactive) | > 25 | 7.83 µM (inactive) | 6.5 µM (inactive) | > 25 µM (inactive) | 9.31 µM (inactive) | 5.53 µM (inactive) | 5.12 µM (inactive) | 9.16 µM (inactive) | 8.11 µM (inactive) | > 25 µM (inactive) | 4.93 µM (inactive) | 6.68 µM (inactive) | 22.8 µM (inactive) | 5.71 µM (inactive) | 8.26 µM (inactive) | 
4 | CC(C)OC(=O)C1(C(C)C)CCc2ccc(C(=O)CCC(=O)O)cc21 (stereo not drawn) | > 100 µM (inactive) | > 100 µM (inactive) | > 100 µM (inactive) | > 100 µM (inactive) | > 100 | > 100 µM (inactive) | > 100 µM (inactive) | > 100 µM (inactive) | > 100 µM (inactive) | > 100 µM (inactive) | > 100 µM (inactive) | > 100 µM (inactive) | > 100 µM (inactive) | > 100 µM (inactive) |  | > 100 µM (inactive) | > 100 µM (inactive) | > 100 µM (inactive) | > 100 µM (inactive) | 
5 | FC1(F)SC2CCCCCCCCCCC2C1(F)F (stereo not drawn) | 28.2 µM (inactive) | 39.7 µM (inactive) | 22.8 µM (inactive) | 78.2 µM (inactive) | 42.5 | 31.1 µM (inactive) | 30.9 µM (inactive) | 63.4 µM (inactive) | 25.3 µM (inactive) | 67.5 µM (inactive) | 18.4 µM (inactive) | 21.8 µM (inactive) | 28.5 µM (inactive) |  |  |  |  | 18.5 µM (inactive) | 35 µM (inactive) | 19.1 µM (inactive)
6 | CCOC(=O)C(C#N)C1=CC(=O)C(=O)c2ccc(O)cc21 (stereo not drawn) | > 100 µM (inactive) | 20.9 µM (inactive) | 32.1 µM (inactive) | 30.5 µM (inactive) | > 100 | > 100 µM (inactive) | 79.4 µM (inactive) | > 100 µM (inactive) | 42.3 µM (inactive) | > 100 µM (inactive) | 55.1 µM (inactive) | 47 µM (inactive) | 48.5 µM (inactive) | 77.4 µM (inactive) | > 100 µM (inactive) | > 100 µM (inactive) | > 100 µM (inactive) | > 100 µM (inactive) | > 100 µM (inactive) | 
7 | CN1CC2=C(N=C(S)NC2c2ccc(Cl)cc2)/C(=C/c2ccc(Cl)cc2)C1 (stereo not drawn) | 5.32 µM (inactive) | 18.3 µM (inactive) | 20.8 µM (inactive) | 25.8 µM (inactive) | 13.8 | 14.1 µM (inactive) | 15 µM (inactive) | 17.2 µM (inactive) | 23 µM (inactive) | 15.6 µM (inactive) | 15.7 µM (inactive) | 14.5 µM (inactive) | 17.2 µM (inactive) | 14.6 µM (inactive) | > 10 µM (inactive) | 17.2 µM (inactive) | 14.8 µM (inactive) | 18.5 µM (inactive) | 19 µM (inactive) | 
8 | COC(=O)[C@H](C)[C@@H]1CC[C@](C)(CCC2=C(C)CCCC2(C)C)OO1 | > 25 µM (inactive) | > 25 µM (inactive) | > 25 µM (inactive) | 23.7 µM (inactive) | > 25 | > 25 µM (inactive) | > 25 µM (inactive) | > 25 µM (inactive) | > 25 µM (inactive) | > 25 µM (inactive) | > 25 µM (inactive) | > 25 µM (inactive) | > 25 µM (inactive) | > 25 µM (inactive) |  | > 25 µM (inactive) | > 25 µM (inactive) | > 25 µM (inactive) | > 25 µM (inactive) | > 25 µM (inactive)
9 | CN(Cc1cnc2nc(N)nc(N)c2n1)c1ccc(C(=O)NC23CC4CC(CC(C4)C2)C3)cc1 | 6.68 µM (inactive) | 4.14 µM (inactive) | 14.1 µM (inactive) | 11.8 µM (inactive) | 4.71 | 10.7 µM (inactive) | 15.9 µM (inactive) | 42.8 µM (inactive) | 3.13 µM (inactive) | 12.7 µM (inactive) | 4.01 µM (inactive) | 6.85 µM (inactive) | 12 µM (inactive) | 7.33 µM (inactive) | 53.6 µM (inactive) | 20.4 µM (inactive) | 5.96 µM (inactive) |  |  | 
10 | CN(C)/C=N/c1cc(=O)n(C)c(=O)n1C | > 100 µM (inactive) | > 100 µM (inactive) | > 100 µM (inactive) | > 100 µM (inactive) | > 100 | > 100 µM (inactive) | > 100 µM (inactive) | > 100 µM (inactive) | > 100 µM (inactive) |  | > 100 µM (inactive) | > 100 µM (inactive) | > 100 µM (inactive) | > 100 µM (inactive) | > 100 µM (inactive) | > 100 µM (inactive) | > 100 µM (inactive) | > 100 µM (inactive) | > 100 µM (inactive) | > 100 µM (inactive)
11 | Cc1ccc(C2SC(=N)Nc3c2c(C)nn3C(=O)c2ccc(Cl)cc2)cc1 (stereo not drawn) | > 10 µM (inactive) | > 10 µM (inactive) | > 10 µM (inactive) |  | > 10 | > 10 µM (inactive) | > 10 µM (inactive) | > 10 µM (inactive) | > 10 µM (inactive) | > 10 µM (inactive) | > 10 µM (inactive) | > 10 µM (inactive) | > 10 µM (inactive) | > 10 µM (inactive) |  | > 10 µM (inactive) | > 10 µM (inactive) | > 10 µM (inactive) | > 10 µM (inactive) | > 10 µM (inactive)
12 | CC1=NNC(=O)C1C1CC(c2c[nH]c3ccccc23)=NN(C(N)=O)C1=O (stereo not drawn) | 33.7 µM (inactive) | > 100 µM (inactive) | > 100 µM (inactive) | 28.7 µM (inactive) | 37.8 | > 100 µM (inactive) | 61 µM (inactive) | > 100 µM (inactive) | 97.9 µM (inactive) |  | 83.2 µM (inactive) | > 100 µM (inactive) | 51.2 µM (inactive) | 92.9 µM (inactive) | > 100 µM (inactive) | > 100 µM (inactive) | 62.4 µM (inactive) | > 100 µM (inactive) | 64 µM (inactive) | > 100 µM (inactive)
13 | C/C(=C\CSCC(N)C(=O)O)CC/C=C(\C)CNc1ccccc1 (stereo not drawn) | > 100 µM (inactive) | > 100 µM (inactive) | > 100 µM (inactive) | 82 µM (inactive) | > 100 | > 100 µM (inactive) | > 100 µM (inactive) | > 100 µM (inactive) | > 100 µM (inactive) | > 100 µM (inactive) | > 100 µM (inactive) | > 100 µM (inactive) | > 100 µM (inactive) | > 100 µM (inactive) |  | > 100 µM (inactive) | > 100 µM (inactive) | > 100 µM (inactive) | > 100 µM (inactive) | 
14 | COC(=O)[C@@]12CN(C)[C@@H](C(C)(C)C)N1C(=O)OC2c1ccccc1 (stereo partly drawn) | > 100 µM (inactive) | > 100 µM (inactive) | > 100 µM (inactive) | > 100 µM (inactive) | > 100 | > 100 µM (inactive) | > 100 µM (inactive) | > 100 µM (inactive) | > 100 µM (inactive) | > 100 µM (inactive) |  | > 100 µM (inactive) | > 100 µM (inactive) | > 100 µM (inactive) |  | > 100 µM (inactive) | > 100 µM (inactive) | > 100 µM (inactive) | > 100 µM (inactive) | > 100 µM (inactive)
15 | Cn1c(-c2c(C3=CC(=O)N(c4ccccc4)C3=O)c3ccccc3n2C)cc2ccccc21 | 58.7 µM (inactive) | > 100 µM (inactive) | > 100 µM (inactive) | > 100 µM (inactive) | > 100 | > 100 µM (inactive) | > 100 µM (inactive) | > 100 µM (inactive) | > 100 µM (inactive) | 17.7 µM (inactive) | > 100 µM (inactive) | 7.41 µM (inactive) | > 100 µM (inactive) | > 100 µM (inactive) |  | > 100 µM (inactive) | > 100 µM (inactive) | > 100 µM (inactive) | > 100 µM (inactive) | > 100 µM (inactive)
